We go through six substances from paper PMC4188015 (Acta Crystallographica Section D: Biological Crystallography, 2014).

Where two headings read alike, the source gives them in different places.

For assay [1] the following is noted: ITC; n = 8; ref Antolikova et al. (2011); listed as wild-type human insulin; read-out: K diss (dimer↔monomer); cited from earlier work. In general terms: In ITC the heat of successive injections is recorded.
The target in another assay is IR site 2. The settings on record: ref Kiselyov et al., 2009; read-out: K d, IR low-affinity site 2; cited from earlier work. The text has this:
(§1) Extensive mutagenesis and cross-linking studies of both insulin and IR led to the discovery and mapping of two sites on the IR that are responsible for engaging with the hormone. […] The hormone–receptor interaction events are comp ...

The next assay relates to IR-B. The settings on record: single mutation; ref Glendorf et al. (2011); cited from earlier work. The text has this: The IR-B:IR-A specificity ratio of insulin analogues is of considerable interest owing to IR-B being the dominant (∼90–95%) receptor isoform in the liver (Moller et al., 1989[▶]). This, together with the anatomic proximity of the pancreas and the liver (short hepatic portal vein connectivity), makes the liver the major glucose homeostatic organ.

For a further assay, the system named is IR. The following applies: ref Žáková et al., 2013; cited from earlier work. The text has this: The full-length insulin B26-site mutants AsnB26, AspB26, PheB26, GlnB26 and GlyB26 have been prepared and characterized. […] In the cases of [PheB26]-insulin and [GlyB26]-insulin, we aimed to investigate the structural consequences of the loss of the TyrB26 side-chain hydroxyl group or the whole TyrB26 side chain, respectively. The affinities of the analogues for the IR-A isoform (IM-9 lymphocytes) and of selected ...

The subject of assay [2] is both rat IR-A and IR-B isoforms. The assay can be described thus: Receptor binding, rat adipocyte plasma membranes. On the procedure: Receptor-binding studies with the insulin receptor in plasma membranes containing both rat IR-A and IR-B isoforms prepared from epididymal adipose tissue of adult male Wistar rats were performed and analyzed according to Žáková et al. (2008[▶]). Binding data were analyzed using GraphPad Prism 5. Half-maximal inhibition values of binding of [^125I]-insulin to the receptor (IC50) were obtained using a nonlinear regression method and a one-site fitting program.

Assay [3] is described as follows: Isothermal microcalorimetry (ITC) of dimerization (dimer-monomer dissociation). Format: physicochemical. The following applies: mean ± spread, n = 3, read-out: K diss (dimer↔monomer).
Experimental: Investigations of the dimerization abilities of selected insulin analogues were performed as described in detail previously (Antolikova et al., 2011[▶]).
Assay [4] deals with both rat IR-A and IR-B isoforms. The settings on record: rat adipocytes, ref Jiracek et al. (2010), cited from earlier work. The text has this: In the cases of [PheB26]-insulin and [GlyB26]-insulin, we aimed to investigate the structural consequences of the loss of the TyrB26 side-chain hydroxyl group or the whole TyrB26 side chain, respectively. The affinities of the analogues for the IR-A isoform (IM-9 lymphocytes) and of selected ...

Another assay addresses IR-A. The settings on record: ref Morcavallo et al., 2012; read-out: K d for IR-A; cited from earlier work.
Text: as §1

Consider Human insulin, for which the Kd in assay [1] was roughly 9000 nM; on IR site 2, roughly 400 nM.

As to [AsnB25]-insulin, the IR-B specificity result with IR-B is on record as “doubling of the IR-B specificity”.

As for [GluB26,LysB28,ProB29]-insulin, the “binding affinity relative to human insulin” value in the assay with IR is given as 193%.

With [GlyB26]-insulin, the “Potency (relative receptor-binding affinity), rat IR-A and IR-B” value in assay [2] ((IC50 of human insulin/IC50 of analogue) × 100, rat adipocytes) is reported as roughly 70%. Further, the 50% inhibitory concentration (IC50) in assay [2] (half-maximal inhibition of binding of human 125I-TyrA14 insulin, rat adipose plasma membranes, mean ± SE (n), SEM, read-out: IC50 ± SE for both rat IR-A and IR-B in rat adipocytes) amounted to 1.16 ± 0.12 nM.

In the case of [PheB26]-insulin, the Kd in assay [3] was determined as 27200 ± 7400 nM. The “Potency (relative receptor-binding affinity), rat IR-A and IR-B” value in assay [4] is on record as 46 ^¶ %; in assay [4] (listed as PheB26), “less than 50%”.

For insulin-like growth factor II [IGF-II], the Kd on IR-A is roughly 4 nM.

A word on the IC50: it is the midpoint of a concentration-inhibition curve.
